From patent US5411740A (ALZA Corporation, priority 1994, dated 1995)
Where two headings read alike, the source gives them in different places.

Assays:
[1] = 25 mg/ml oxybutynin reservoir, 20 μm polybutadiene film, cited from earlier work
[2] = clinical; conditions: human, in vivo, topical or ocular; for concentration at 24 h: after 24 hours; for concentration at 12 h: after 12 hours
Protocol: (§1) Addition time was approximately 45 minutes.
No in-line adhesive was present. […] There was a 3M acrylate in-line adhesive present.
The in vivo plasma levels of oxybutynin were measured for two body sites. A 10 cm^2 device was worn on the penis for 101/2 hours and two 10 cm^2 devices were worn on the inner thigh for 24 hours. A control sample was drawn before applying the systems.
The other subject achieved a plasma level of 0.7 ng/mL after 12 hours, and the plasma level was 0.8 ng/mL after 24 hours.

[3] = clinical; format: in vivo, human; conditions: system worn for 24 hours
Protocol: Therapeutic blood levels from about 0.5 ng/ml to about 3.0 ng/ml can be obtained from administration rates in the range of 0.08 mg/hr to 0.5 mg/hr. […] Therapeutic blood levels can be achieved within approximately 1-5 hours, and peak blood concentrations are achieved at about 3 hours when the system is worn for 24 hours. […] The system application is easily adapted for shorter or longer duration treatments, but generally 24 hours is the nominal duration for treatment.

[4] = format: in vivo, human
Protocol: as §1

[5] = plasma oxybutynin concentration, two 10 cm^2 systems on inner thigh
[6] = plasma oxybutynin level, additional subject (the other), two 10 cm^2 systems on inner thigh

SMILES: CCN(CC)CC#CCOC(=O)C(O)(c1ccccc1)C1CCCCC1 (stereo not shown) [oxybutynin, 4-diethylamino-2-butynylphenylcyclohexylglycolate]
- in vitro release rate ([1]; 49 cm^2 area): ~10 μg/cm^2 /hr
- in vitro release over 24 hours ([1]; over 24 hours through a 49 cm^2 area): approximately 12 mg
- concentration at 9 h ([2]; plasma oxybutynin concentration, additional subject (one), two 10 cm^2 systems on inner thigh, after 9 hours): 2 ng/mL
- concentration at 24 h ([2]; plasma oxybutynin concentration, additional subject (one), two 10 cm^2 systems on inner thigh): 1.7 ng/mL
- concentration at 12 h [2, 5]: 0.9 ng/mL
- concentration at 24 h [2, 5]: 1.1 ng/mL
- concentration at 4 h ([2]; plasma oxybutynin level, 10 cm^2 device on the penis, within 4 hours): 2 ng/mL
- concentration at 12 h [2, 6]: 0.7 ng/mL
- concentration at 24 h [2, 6]: 0.8 ng/mL
- Tmax ([3]; human, in vivo, topical or ocular, read-out: time of peak blood concentrations): ~3 h
- time to achieve therapeutic blood levels [3]: 1 to 5 h
- Measured Drug Loss ([4]; subject 1, inner thigh): 5.8 mg/20 cm^2 /day
- Measured Drug Loss ([4]; subject 2, inner thigh): 8.6 mg/20 cm^2 /day
- Measured Drug Loss ([4]; subject 3, chest): 6.7 mg/20 cm^2 /day
- Measured Drug Loss ([4]; subject 4, abdomen): 7.2 mg/20 cm^2 /day
- Measured Drug Loss ([4]; subject 5, penis): 19.2 mg/20 cm^2 /day
